# Measured values reported in ChEMBL document CHEMBL4118125, “MK-8325: A silyl proline-containing NS5A inhibitor with pan-genotype activity for treatment of HCV” (Bioorg Med Chem Lett, 2018).
# Columns and labels:
# [1] = Clearance in cynomolgus monkey at 1 mg/kg, iv by LC-MS/MS method; format: ADME, organism-based, Macaca fascicularis; details: in vivo
# [2] = AUC in beagle dog at 2 mg/kg, po by LC-MS/MS method; format: ADME, organism-based, Canis lupus familiaris; details: beagle, in vivo
# [3] = Terminal half life in cynomolgus monkey at 1 mg/kg, iv by LC-MS/MS method; format: ADME, organism-based, Macaca fascicularis; details: in vivo, read-out: beta t1/2 (converted)
# [4] = AUC in Sprague-Dawley rat at 5 mg/kg, po by LC-MS/MS method; format: ADME, organism-based; details: in vivo
# Rattus norvegicus = assay: Dose normalized AUC in Sprague-Dawley rat at 5 mg/kg, po by LC-MS/MS method; format: ADME, organism-based; details: in vivo
# [5] = Oral bioavailability in Sprague-Dawley rat at 5 mg/kg by LC-MS/MS method; format: ADME, organism-based; details: in vivo
# [6] = Effective half life in Sprague-Dawley rat at 2.5 mg/kg, iv by LC-MS/MS method; format: ADME, organism-based; details: in vivo, read-out: t1/2eff (converted)
# [7] = Effective half life in beagle dog at 1 mg/kg, iv by LC-MS/MS method; format: ADME, organism-based, Canis lupus familiaris; details: in vivo, read-out: t1/2eff (converted)
# [8] = Effective half life in cynomolgus monkey at 1 mg/kg, iv by LC-MS/MS method; format: ADME, organism-based, Macaca fascicularis; details: in vivo, read-out: t1/2eff (converted)
# [9] = Oral bioavailability in beagle dog at 2 mg/kg by LC-MS/MS method; format: ADME, organism-based, Canis lupus familiaris; details: in vivo
# [10] = Clearance in beagle dog at 1 mg/kg, iv by LC-MS/MS method; format: ADME, organism-based, Canis lupus familiaris; details: in vivo
# [11] = Drug level in Sprague-Dawley rat at 5 mg/kg, po after 24 hrs by LC-MS/MS method; format: ADME, organism-based; details: in vivo, read-out: Drug uptake
# [12] = Volume of distribution at steady state in beagle dog at 1 mg/kg, iv by LC-MS/MS method; format: ADME, organism-based, Canis lupus familiaris; details: in vivo, read-out: Vdss
# [13] = Cmax in cynomolgus monkey at 2 mg/kg, po by LC-MS/MS method; format: ADME, organism-based, Macaca fascicularis; parameters: dose 2 mg/kg, route oral; details: in vivo
# [14] = Oral bioavailability in fasted dog at 2 mg/kg by LC-MS/MS method; format: ADME, organism-based, Canis lupus familiaris; details: in vivo
# [15] = Oral bioavailability in cynomolgus monkey at 2 mg/kg by LC-MS/MS method; format: ADME, organism-based, Macaca fascicularis; details: in vivo
# [16] = Tmax in Sprague-Dawley rat at 5 mg/kg, po by LC-MS/MS method; format: ADME, organism-based; details: in vivo
# [17] = Clearance in Sprague-Dawley rat at 2.5 mg/kg, iv by LC-MS/MS method; format: ADME, organism-based; details: in vivo
# [18] = Terminal half life in Sprague-Dawley rat at 2.5 mg/kg, iv by LC-MS/MS method; format: ADME, organism-based; details: in vivo, read-out: beta t1/2 (converted)
# [19] = Tmax in beagle dog at 2 mg/kg, po by LC-MS/MS method; format: ADME, organism-based, Canis lupus familiaris; details: in vivo
# [20] = Drug level in cynomolgus monkey at 2 mg/kg, po after 24 hrs by LC-MS/MS method; format: ADME, organism-based, Macaca fascicularis; details: in vivo, read-out: Drug uptake
# [21] = Tmax in cynomolgus monkey at 2 mg/kg, po by LC-MS/MS method; format: ADME, organism-based, Macaca fascicularis; details: in vivo
# [22] = Volume of distribution at steady state in cynomolgus monkey at 1 mg/kg, iv by LC-MS/MS method; format: ADME, organism-based, Macaca fascicularis; details: in vivo, read-out: Vdss
# [23] = Cmax in beagle dog at 2 mg/kg, po by LC-MS/MS method; format: ADME, organism-based, Canis lupus familiaris; parameters: dose 2 mg/kg, route oral; details: in vivo
# [24] = Drug level in beagle dog at 2 mg/kg, po after 24 hrs by LC-MS/MS method; format: ADME, organism-based, Canis lupus familiaris; details: in vivo, read-out: Drug uptake
# [25] = Cmax in Sprague-Dawley rat at 5 mg/kg, po by LC-MS/MS method; format: ADME, organism-based; parameters: dose 5 mg/kg, route oral; details: in vivo
# Cynomolgus monkey = assay: Dose normalized AUC in cynomolgus monkey at 2 mg/kg, po by LC-MS/MS method; format: ADME, organism-based, Macaca fascicularis; details: in vivo
# [26] = Terminal half life in beagle dog at 1 mg/kg, iv by LC-MS/MS method; format: ADME, organism-based, Canis lupus familiaris; details: in vivo, read-out: beta t1/2 (converted)
# Canis familiaris = assay: Dose normalized AUC in beagle dog at 2 mg/kg, po by LC-MS/MS method; format: ADME, organism-based, Canis lupus familiaris; details: in vivo
# [27] = Volume of distribution at steady state in Sprague-Dawley rat at 2.5 mg/kg, iv by LC-MS/MS method; format: ADME, organism-based; details: in vivo, read-out: Vdss
# [28] = AUC in cynomolgus monkey at 2 mg/kg, po by LC-MS/MS method; format: ADME, organism-based, Macaca fascicularis; details: in vivo
compound,measurement,setting,value
COC(=O)N[C@H](C(=O)N1CC(F)(F)C[C@H]1c1ncc(-c2ccc(-c3ccc4c(ccc5nc([C@@H]6C[Si](C)(C)CN6C(=O)[C@@H](NC(=O)OC)C(C)C)[nH]c54)c3)cc2)[nH]1)C(C)C.Cl.Cl,clearance,[1],1.2 mL/min/kg
same,AUC,[2],4.2 µM·h
same,half-life,[3],1200 min
same,AUC,[4],5 µM·h
same,AUC/dose,Rattus norvegicus,1 µM·h/mg/kg
same,bioavailability,[5],28%
same,half-life,[6],456 min
same,half-life,[7],1080 min
same,half-life,[8],1020 min
same,bioavailability,[9],8.7%
same,clearance,[10],0.8 mL/min/kg
same,concentration at 24 h,[11],51 nM
same,Vd,[12],1.3 L/kg
same,Cmax,[13],180 nM
same,bioavailability,[14],9%
same,bioavailability,[15],11.7%
same,Tmax,[16],5.3 h
same,clearance,[17],5.6 mL/min/kg
same,half-life,[18],582 min
same,Tmax,[19],2.7 h
same,concentration at 24 h,[20],55 nM
same,Tmax,[21],4.7 h
same,Vd,[22],1.7 L/kg
same,Cmax,[23],270 nM
same,concentration at 24 h,[24],40 nM
same,Cmax,[25],330 nM
same,AUC/dose,Cynomolgus monkey,2 µM·h/mg/kg
same,half-life,[26],1560 min
same,AUC/dose,Canis familiaris,2.1 µM·h/mg/kg
same,Vd,[27],3.7 L/kg
same,AUC,[28],4 µM·h
